# Assay results reported in patent US20250277012A1 (Protagonist Therapeutics, Inc., priority 2021, published 2025).
# Read-outs that look alike come from different tables or passages of the source. Starred links: 1 amine or outer side, 2 acyl side, 3 side chain; linkers in the order of their positions; H or OH if unused. Positions of bridges follow the written chain, without caps; N, C: chain ends. Non-standard residues stand in square brackets, D forms with d. Residues, ends and D or L forms follow the SMILES beside them. Groups on a side chain read outwards from the residue. *: point of attachment. CH3O(CH2CH2O)11CH2CH2CO = COCCOCCOCCOCCOCCOCCOCCOCCOCCOCCOCCOCCC(=O)*; X1 = C[N+](C)(CCNC(=O)CCCCCCCCCCCCCCCCC(=O)O)CC(=O)*; C18 diacid = O=C(O)CCCCCCCCCCCCCCCCC(=O)*; Dip = N[C@H](C(=O)O)C(c1ccccc1)c1ccccc1; γGlu = O=C(O)[C@H](CCC(=O)[*:2])N[*:1]; dNMeY = CN[C@H](Cc1ccc(O)cc1)C(=O)O; Palmitoyl = CCCCCCCCCCCCCCCC(=O)*; dNMeQ = CN[C@H](CCC(N)=O)C(=O)O; β3hF = N[C@H](CC(=O)O)Cc1ccccc1; NMeK = CN[C@@H](CCCCN)C(=O)O; Pen = CC(C)(S)[C@H](N)C(=O)O; αMeK = C[C@](N)(CCCCN)C(=O)O; Isovaleryl = CC(C)CC(=O)*; Dap = NC[C@H](N)C(=O)O; AEEA = NCCOCCOCC(=O)O; Ahx = NCCCCCC(=O)O
# Assays:
# [1] = biological target: T1, ferroportin (Homo sapiens, UniProt Q9NP59); test: T47D cell-based ferroportin internalization assay in presence of mouse serum albumin (MSA); design: a human breast carcinoma adherent cell line which endogenously expresses ferroportin; host or cells: T47D
# T1 sequence (Q9NP59 1-571): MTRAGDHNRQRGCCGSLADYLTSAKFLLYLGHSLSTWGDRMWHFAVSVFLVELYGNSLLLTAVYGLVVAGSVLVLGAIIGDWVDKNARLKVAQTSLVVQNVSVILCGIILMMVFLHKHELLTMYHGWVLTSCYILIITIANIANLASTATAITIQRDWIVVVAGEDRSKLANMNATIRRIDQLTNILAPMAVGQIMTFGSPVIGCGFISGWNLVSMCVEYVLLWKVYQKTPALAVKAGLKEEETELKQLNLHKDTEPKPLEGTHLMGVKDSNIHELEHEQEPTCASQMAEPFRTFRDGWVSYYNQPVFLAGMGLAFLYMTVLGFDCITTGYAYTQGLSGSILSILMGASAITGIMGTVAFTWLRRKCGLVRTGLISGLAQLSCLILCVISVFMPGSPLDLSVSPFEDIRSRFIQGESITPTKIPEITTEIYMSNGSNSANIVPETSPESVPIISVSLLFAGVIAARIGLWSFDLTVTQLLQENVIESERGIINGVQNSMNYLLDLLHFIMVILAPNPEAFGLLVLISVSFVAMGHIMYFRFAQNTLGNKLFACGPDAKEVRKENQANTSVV
# Summary of the method: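 Peptide potency for inducing ferroportin internalization was measured in T47D cells in the presence of serum albumin. Cells grown in RPMI with fetal bovine serum were seeded in 96-well plates at 80-100 k cells per well in 100 ul and rested overnight. Dilution series of test peptides were preincubated 30 min at room temperature, then added to the cells after the medium was aspirated.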
# [2] = biological target: T1, ferroportin; test: FPN activity assay: ferroportin-GFP internalization/degradation in HEK293 cells; assay type: cell-based; design: expressed in transfected cells; conditions: read-out: FPN IC50
# Procedure: Following internalization, the ferroporin protein is degraded.
# A retro inverse peptide is a peptide with a reversed sequence in all D amino acids. An example is that Hy-Glu-Thr-His-NH2 becomes Hy-DHis-DThr-DGlu-NH2. The EC50 of these reference compounds for ferroportin internalization/degradation was determined according to the FPN activity assay described above. These peptides served as control standards.
# [3] = T47D internalization assay in presence of mouse serum albumin (MSA), Table 6E
# [4] = ferroportin-GFP internalization/degradation, HEK293 cells, Table 6E
# [5] = Table 6E, T47D internalization assay with MSA
# [6] = Table 6E, ferroportin-GFP internalization/degradation, at least 18 hours incubation
# [7] = T47D cells, 0.5% mouse serum albumin, 1 hr incubation
# [8] = ferroportin-GFP HEK293 cells, at least 18 hours
SMILES,"IC50 [1, 3] [nM]","DC50 [2, 4] [nM]","IC50 [1, 7] [nM]","DC50 [2, 8] [nM]",further results
CC(C)CC(=O)N[C@@H](CCC(=O)O)C(=O)N[C@H](C(=O)N[C@@H](Cc1c[nH]cn1)C(=O)N[C@H](C(=O)N1CCC[C@H]1C(=O)N[C@H]1CSSC[C@@H](C(=O)N(C)[C@@H](CCCCNC(=O)COCCOCCNC(=O)COCCOCCNC(=O)[C@H](CN)NC(=O)CCCCCCCCCCCCCCCCC(=O)O)C(=O)N[C@H](CC(=O)N[C@H](CCCCN)C(=O)N(C)[C@H](CCC(N)=O)C(N)=O)Cc2ccccc2)NC1=O)C(c1ccccc1)c1ccccc1)[C@@H](C)O [compound 248] (Isovaleryl-ETH[Dip]PCC[NMeK]([AEEA-AEEA-Dap-C18 diacid])[β3hF][dK][dNMeQ]-NH2; disulfide 6-7),10 to 100,10 to 100,,,
CC(C)CC(=O)N[C@@H](CCC(=O)O)C(=O)N[C@H](C(=O)N[C@@H](Cc1c[nH]cn1)C(=O)N[C@H](C(=O)N1CCC[C@H]1C(=O)N[C@H]1CSSC[C@@H](C(=O)N[C@@](C)(CCCCNC(=O)COCCOCCNC(=O)COCCOCCNC(=O)[C@H](CN)NC(=O)CCCCCCCCCCCCCCCCC(=O)O)C(=O)N[C@H](CC(=O)N[C@H](CCCCN)C(N)=O)Cc2ccccc2)NC1=O)C(c1ccccc1)c1ccccc1)[C@@H](C)O [compound 302] (Isovaleryl-ETH[Dip]PCC[αMeK]([AEEA-AEEA-Dap-C18 diacid])[β3hF][dK]-NH2; disulfide 6-7),10 to 100,10 to 100,,,
CCCCCCCCCCCCCCCC(=O)N[C@@H](CCC(=O)NCCCC[C@@H](C(=O)N[C@H](CC(=O)N[C@H](CCCCNC(=O)CCOCCOCCOCCOCCOCCOCCOCCOCCOCCOCCOCCOC)C(N)=O)Cc1ccccc1)N(C)C(=O)[C@@H]1CSSC[C@H](NC(=O)[C@@H]2CCCN2C(=O)[C@@H](NC(=O)[C@H](Cc2cnc[nH]2)NC(=O)[C@@H](NC(=O)[C@H](CCC(=O)O)NC(=O)CC(C)C)[C@@H](C)O)C(c2ccccc2)c2ccccc2)C(=O)N1)C(=O)O [compound 222] (Isovaleryl-ETH[Dip]PCC[NMeK]([γGlu-Palmitoyl])[β3hF][dK](CH3O(CH2CH2O)11CH2CH2CO)-NH2; disulfide 6-7),,,,,"IC50 [1, 5]: 1 to 10 nM; DC50 [2, 6]: 10 to 100 nM"
"CC(C)CC(=O)N[C@@H](CCC(=O)O)C(=O)N[C@H](C(=O)N[C@@H](Cc1c[nH]cn1)C(=O)N[C@H](C(=O)N1CCC[C@H]1C(=O)N[C@H]1CSSC[C@@H](C(=O)N[C@@H](CCCCNC(=O)COCCOCCNC(=O)COCCOCCNC(=O)CC[C@H](NC(=O)CCCCCCCCCCCCCCCCC(=O)O)C(=O)O)C(=O)N[C@H](CC(=O)N[C@H](CCCCN)C(N)=O)Cc2ccccc2)NC1=O)C(c1ccccc1)c1ccccc1)[C@@H](C)O [Compd ID 31, Isovaleric Acid-E-T-H-[Dpa]-P-[Cys]-[Cys]-[Lys(1PEG2_1PEG2_IsoGlu_C18_Diacid)]-[bhPhe]-[(D)Lys]-NH2] (Isovaleryl-ETH[Dip]PCCK([AEEA-AEEA-γGlu-C18 diacid])[β3hF][dK]-NH2; disulfide 6-7)",,,10 to 100,10 to 100,
COC(=O)CC[C@H](NC(=O)CC(C)C)C(=O)N[C@H](C(=O)N[C@@H](Cc1c[nH]cn1)C(=O)N[C@H](C(=O)N1CCC[C@H]1C(=O)N[C@H]1CSSC[C@@H](C(=O)N(C)[C@@H](CCCCNC(=O)CCCCCNC(=O)C[N+](C)(C)CCNC(=O)CCCCCCCCCCCCCCCCC(=O)O)C(=O)N[C@H](C(=O)N[C@H](CCCCN)C(N)=O)C(c2ccccc2)c2ccccc2)NC1=O)C(c1ccccc1)c1ccccc1)[C@@H](C)O [compound 232] (Isovaleryl-E(OMe)TH[Dip]PCC[NMeK]([Ahx-X1])[Dip][dK]-NH2; disulfide 6-7),10 to 100,10 to 100,,,
COC(=O)CC[C@H](NC(=O)CC(C)C)C(=O)N[C@H](C(=O)N[C@@H](Cc1c[nH]cn1)C(=O)N[C@H](C(=O)N1CCC[C@H]1C(=O)N[C@H]1CSSC[C@@H](C(=O)N(C)[C@@H](CCCCNC(=O)COCCOCCNC(=O)COCCOCCNC(=O)[C@H](CN)NC(=O)CCCCCCCCCCCCCCCCC(=O)O)C(=O)N[C@H](CC(=O)N[C@H](CCCCN)C(N)=O)Cc2ccccc2)NC1=O)C(c1ccccc1)c1ccccc1)[C@@H](C)O [compound 305] (Isovaleryl-E(OMe)TH[Dip]PCC[NMeK]([AEEA-AEEA-Dap-C18 diacid])[β3hF][dK]-NH2; disulfide 6-7),10 to 100,10 to 100,,,
CC[C@H](C)[C@@H]1NC(=O)[C@@H](NC(=O)[C@@H]2CCCN2C(=O)[C@H](Cc2ccccc2)NC(=O)[C@H](Cc2c[nH]cn2)NC(=O)[C@@H](NC(=O)[C@H](CCC(=O)O)NC(=O)CC(C)C)[C@@H](C)O)C(C)(C)SSC(C)(C)[C@@H](C(=O)N[C@@H](CCCCN)C(N)=O)NC(=O)CNC(=O)[C@H](CCCCN)NC(=O)[C@H](CO)NC(=O)[C@H](CCCNC(=N)N)NC(=O)[C@@H]2CCCN2C(=O)[C@H](CCC(=O)O)NC(=O)[C@H](Cc2ccccc2)NC(=O)[C@H](CCCCNC(=O)COCCOCCNC(=O)COCCOCCNC(=O)CC[C@H](NC(=O)CCCCCCCCCCCCCCCCC(=O)O)C(=O)O)NC1=O [Compd 18] (Isovaleryl-ETHFP[Pen]IK([AEEA-AEEA-γGlu-C18 diacid])FEPRSKG[Pen]K-NH2; disulfide 6-16),,,> 500,> 500,
CCCCCCCCCCCCCCCC(=O)NCCCCCC(=O)NCCCC[C@H](NC(=O)C[C@H](Cc1ccccc1)NC(=O)[C@@H]1CSSC[C@H](NC(=O)CC(C)C)C(=O)N[C@@H]([C@@H](C)O)C(=O)N[C@@H](Cc2c[nH]cn2)C(=O)N[C@@H](C(c2ccccc2)c2ccccc2)C(=O)N2CCC[C@H]2C(=O)N[C@@H](C)C(=O)N[C@@H]([C@@H](C)CC)C(=O)N1)C(=O)N[C@H](CCCCN)C(N)=O [Compd 43] (Isovaleryl-CTH[Dip]PAIC[β3hF]K([Ahx-Palmitoyl])[dK]-NH2; disulfide 1-8),,,> 500,1 to 10,
CC(C)CC(=O)N[C@@H](CCC(=O)O)C(=O)N[C@H](C(=O)N[C@@H](Cc1c[nH]cn1)C(=O)N[C@H](C(=O)N1CCC[C@H]1C(=O)N[C@H]1CSSC[C@@H](C(=O)N(C)[C@@H](CCCCNC(=O)COCCOCCNC(=O)COCCOCCNC(=O)[C@H](CN)NC(=O)CCCCCCCCCCCCCCCCC(=O)O)C(=O)N[C@H](CC(=O)N[C@H](CCCCN)C(=O)N(C)[C@H](Cc2ccc(O)cc2)C(N)=O)Cc2ccccc2)NC1=O)C(c1ccccc1)c1ccccc1)[C@@H](C)O [compound 257] (Isovaleryl-ETH[Dip]PCC[NMeK]([AEEA-AEEA-Dap-C18 diacid])[β3hF][dK][dNMeY]-NH2; disulfide 6-7),10 to 100,10 to 100,,,
CCCCCCCCCCCCCCCC(=O)NCCCCCC(=O)NCCCC[C@H](NC(=O)C[C@H](Cc1ccccc1)NC(=O)[C@@H](CCCCN)NC(=O)[C@@H](NC(=O)[C@H](C)NC(=O)[C@@H]1CSSC[C@H](NC(=O)[C@H](CCC(=O)O)NC(=O)CC(C)C)C(=O)N[C@@H](Cc2c[nH]cn2)C(=O)N[C@@H](C(c2ccccc2)c2ccccc2)C(=O)N1)[C@@H](C)CC)C(=O)N[C@H](CCCCN)C(=O)N[C@@H](C)C(N)=O [Compd 45] (Isovaleryl-ECH[Dip]CAI[dK][β3hF]K([Ahx-Palmitoyl])[dK]A-NH2; disulfide 2-5),,,1 to 10,10 to 100,
COC(=O)CC[C@H](NC(=O)CC(C)C)C(=O)N[C@H](C(=O)N[C@@H](Cc1c[nH]cn1)C(=O)N[C@H](C(=O)N1CCC[C@H]1C(=O)N[C@H]1CSSC[C@@H](C(=O)N(C)[C@@H](CCCCNC(=O)[C@H](CN)NC(=O)CCCCCCCCCCCCCCCCC(=O)O)C(=O)N[C@H](C(=O)N[C@H](CCCCN)C(N)=O)C(c2ccccc2)c2ccccc2)NC1=O)C(c1ccccc1)c1ccccc1)[C@@H](C)O [compound 206] (Isovaleryl-E(OMe)TH[Dip]PCC[NMeK]([Dap-C18 diacid])[Dip][dK]-NH2; disulfide 6-7),,,,,"IC50 [1, 5]: 10 to 100 nM; DC50 [2, 6]: 10 to 100 nM"
CC(C)CC(=O)N[C@@H](CCC(=O)O)C(=O)N[C@H](C(=O)N[C@@H](Cc1c[nH]cn1)C(=O)N[C@H](C(=O)N1CCC[C@H]1C(=O)N[C@H]1CSSC[C@@H](C(=O)N(C)[C@@H](CCCCNC(=O)COCCOCCNC(=O)COCCOCCNC(=O)[C@H](CN)NC(=O)CCCCCCCCCCCCCCCCC(=O)O)C(=O)N[C@H](CC(N)=O)Cc2ccccc2)NC1=O)C(c1ccccc1)c1ccccc1)[C@@H](C)O [compound 295] (Isovaleryl-ETH[Dip]PCC[NMeK]([AEEA-AEEA-Dap-C18 diacid])[β3hF]-NH2; disulfide 6-7),10 to 100,10 to 100,,,
